Here are results for 56 compounds from ChEMBL document CHEMBL6096679, “Recent Progress in the Development of Glucose Transporter (GLUT) Inhibitors” (J Med Chem, 2025).

pIC50: −log10 of the molar value.

Experiment [1] is described as follows: Induction of GLUT1 translocation in mouse 3T3-L1 cells by Western blot analysis. The format is cell-based.
The next experiment deals with A549. The experiment in a line: Inhibition of glycolysis in human A549 cells assessed as decrease in HK2 activity incubated for 48 hrs by spectrophotometric assay. The format is functional, cell-based. Particulars: A549, 48 h.
A short description of experiment [2]: Induction of GLUT4 translocation in mouse 3T3-L1 cells Cytosol by Western blot analysis. It is filed as subcellular. Background: A western blot detects proteins with antibodies after separation by electrophoresis.
The target in experiment [3] is T1, Solute carrier family 2, facilitated glucose transporter member 9 (Homo sapiens, UniProt Q9NRM0).
T1 sequence (Q9NRM0 whole entry): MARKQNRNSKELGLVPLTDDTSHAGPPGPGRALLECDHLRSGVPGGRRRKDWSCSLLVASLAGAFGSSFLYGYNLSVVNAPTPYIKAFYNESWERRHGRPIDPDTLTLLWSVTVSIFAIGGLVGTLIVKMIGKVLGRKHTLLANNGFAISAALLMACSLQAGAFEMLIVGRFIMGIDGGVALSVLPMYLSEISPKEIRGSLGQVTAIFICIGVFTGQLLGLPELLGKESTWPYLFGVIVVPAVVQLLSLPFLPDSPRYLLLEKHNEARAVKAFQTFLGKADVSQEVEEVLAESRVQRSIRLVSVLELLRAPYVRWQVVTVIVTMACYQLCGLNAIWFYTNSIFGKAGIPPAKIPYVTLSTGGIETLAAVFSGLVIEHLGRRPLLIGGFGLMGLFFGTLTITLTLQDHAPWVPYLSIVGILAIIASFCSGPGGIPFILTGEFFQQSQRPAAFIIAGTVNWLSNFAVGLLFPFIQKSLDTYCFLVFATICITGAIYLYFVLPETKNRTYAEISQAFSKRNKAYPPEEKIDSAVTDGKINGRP
The experiment in a line: Inhibition of GLUT9 (unknown origin) overexpressed in uric acid-induced HEK293 cells by patch clamp analysis. The format is cell-based. For orientation: In patch-clamp work, channel activity is measured electrically.

Experiment [4] has as its target T2, Solute carrier family 2, facilitated glucose transporter member 1 (Homo sapiens, UniProt P11166).
T2 sequence (P11166 whole entry): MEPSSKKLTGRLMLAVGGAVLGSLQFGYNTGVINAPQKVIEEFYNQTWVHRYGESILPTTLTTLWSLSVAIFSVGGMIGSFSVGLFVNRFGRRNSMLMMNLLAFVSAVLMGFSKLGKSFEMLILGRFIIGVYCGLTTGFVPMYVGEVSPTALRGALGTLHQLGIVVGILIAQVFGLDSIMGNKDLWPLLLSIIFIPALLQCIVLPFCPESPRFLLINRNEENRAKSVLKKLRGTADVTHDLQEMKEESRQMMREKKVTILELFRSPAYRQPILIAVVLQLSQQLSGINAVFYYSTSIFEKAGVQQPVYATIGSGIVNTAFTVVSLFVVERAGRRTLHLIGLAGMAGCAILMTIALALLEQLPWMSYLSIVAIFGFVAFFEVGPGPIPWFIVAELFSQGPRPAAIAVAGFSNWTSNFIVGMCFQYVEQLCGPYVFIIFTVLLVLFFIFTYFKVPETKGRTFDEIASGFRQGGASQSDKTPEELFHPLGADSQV
The experiment in a line: Inhibition of GLUT1 in human wild-type DLD-1 cells assessed as reduction in ATP level measured after 90 mins by Celltiter-glo luminescent assay. The format is cell-based.

For the next experiment, the system named is 3T3-L1. Briefly: Induction of glucose uptake in mouse 3T3-L1 cells assessed as increase in glucose uptake. The format is functional, cell-based.

For the compound `O=C(CN1C(=O)S/C(=C/c2ccc(F)cc2)C1=O)Nc1cccc(C(F)(F)F)c1`, the pIC50 (in general, −log10 of the IC50, conventionally taken in molar units) in experiment [1] was 4.58.
Turning to `O=C(COc1cccc(-c2nc(Nc3ccc(-c4cn[nH]c4)cc3)c3sccc3n2)c1)NC1CCCC1`, the negative logarithm of the IC50 (pIC50) in the experiment on A549 is above 7.00.
In turn, `CS(=O)(=O)c1ccc(Nc2ccc3c(c2)OCO3)c([N+](=O)[O-])c1` gave a negative logarithm of the IC50 (pIC50) in experiment [2] of 5.24.
Regarding `C=C1[C@@H](C)[C@H]2[C@H](Cc3ccccc3)NC(=O)[C@]23OC(=O)/C=C/[C@H](O)CCC[C@@H](C)C/C=C/[C@H]3[C@@H]1O` [CYTOCHALASIN B], the negative-log IC50 (pIC50) in experiment [3] was 6.36.
Turning to `C[C@H](NC(=O)[C@H](Cc1ccc(F)cc1)NC(=O)Cc1cccc(O)c1)c1ccccc1`, the pIC50 in experiment [1] is 9.70.
With `CCOC(=O)Cn1c2c(c3ccccc31)C[C@@H]1C[C@@H]2[C@H](OC)CN1C(=O)c1cccnc1SC`, the pIC50 was 7.22 in experiment [4] and 4.94 in experiment [3].
Regarding `Cc1nn(C(=O)c2ccncc2)c(C)c1/N=N/c1ccc(Cl)cc1`, in experiment [4], the negative logarithm of the IC50 (pIC50) is 4.95.
Regarding `CCC(C)[C@H]1C(=O)NCC(=O)N(C)CC/C=C/C(=O)OCC(C)(C)C(=O)C(=O)N2CCCC[C@H]2C(=O)O[C@H](CCc2ccc(OC)c(OC)c2)c2cccc(c2)NC(=O)CCC(=O)N(C)[C@@H](CC(C)C)C(=O)N[C@H](Cc2ccccc2)C(=O)N1C` (stereo partly drawn), the pIC50 in experiment [1] is 7.11.
For the compound `O=C(COc1cccc(-c2nc3c(c(Nc4ccc(-c5cn[nH]c5)cc4)n2)COC3)c1)NC1CCCC1`, in the experiment on A549, the pIC50 is above 7.00.
On the same count and under the same terms, to `O=C(COc1cccc(-c2nc3c(c(Nc4ccc(-c5cn[nH]c5)cc4)n2)COC3)c1)NC1CCC1` belongs above 7.00.
As for `C/C(=N\O)c1ccc(-c2ccc(O)c(Cl)c2)c(Cl)c1O`, the pIC50 in experiment [4] was 6.54.
In turn, `O=C(CN1C(=O)S/C(=C/c2ccccc2)C1=O)Nc1nc2c(Cl)cccc2s1` gave a pIC50 in experiment [1] of 4.90.
With `O=C(CN1C(=O)S/C(=C/c2ccco2)C1=O)Nc1nc2ccccc2s1`, the pIC50 in experiment [1] is 4.94.
On to `Cc1cccc(NC(=O)CN2C(=O)N/C(=C/c3cc(C)n(-c4ccc(O)cc4)c3C)C2=O)c1`, for which the negative logarithm of the IC50 (pIC50) in experiment [4] was 4.97.
With `O=C(Oc1ccc2ccc(=O)oc2c1OC(=O)c1ccc(O)cc1)c1ccc(O)cc1`, the pIC50 in experiment [4] is 4.42.
Take `CC(=O)Nc1ccc(S(=O)(=O)Nc2ccc(Nc3cc(N(C)C)nc(C)n3)cc2)cc1`: the negative logarithm of the IC50 (pIC50) in experiment [2] is 5.15.
For `CCCCC1C(=O)NC2Cc3cccc4ccc(cc34)N1C(=O)COc1cccc(c1)[C@@H](CCc1ccc(OC)c(OC)c1)OC(=O)C1CCCCN1C(=O)C(=O)C(C)(C)COC(=O)/C=C\CCN(C)C(=O)CNC(=O)C(COC(C)(C)C)N(C)C2=O` (stereo partly drawn), the pIC50 with A549 was above 7.00.
As for `N[C@H]1C(O)O[C@H](CO)[C@@H](O)[C@@H]1O` (stereo partly drawn) [GLUCOSAMINE], the pIC50 with 3T3-L1 is 6.05.
For `O=C(COc1ccc(-c2csc3ccccc23)cc1CN1CCN(c2ccccn2)CC1)NCc1nccs1`, in experiment [4], the negative logarithm of the IC50 (pIC50) was 5.20.
Turning to `FC(F)(F)c1cc(NC(=S)NCc2ccccc2)ccc1Cl`, the pIC50 in the experiment on 3T3-L1 was 4.21.
Still for that read-out and setting: to `CC/C=C\C/C=C\C/C=C\C/C=C\C/C=C\C/C=C\CCC(=O)O` [DOCONEXENT] belongs 6.10.
`COc1ccccc1N1CCN(c2ncnc3c2cnn3-c2cc(F)cc(F)c2)CC1`: in experiment [1], the negative-log IC50 (pIC50) is 10.05.
As to `CN(Cc1cccc2ncccc12)C(=O)c1cnn(-c2ncc3c(n2)-c2ccccc2CC3)c1C1CC1`, the negative-log IC50 (pIC50) in experiment [4] was 5.15.
With `O=C(Oc1cccc(OC(=O)c2cc(O)c(O)c(O)c2)c1OC(=O)c1cc(O)c(O)c(O)c1)c1cc(O)c(O)c(O)c1`, in the experiment on 3T3-L1, the negative-log IC50 (pIC50) was 5.30.
`COc1cc(/C=C/C(=O)CC(=O)/C=C/c2ccc(O)c(OC)c2)ccc1O` [CURCUMIN] gave a pIC50 in experiment [3] of 4.72.
Regarding `C/C(=N\O)c1ccc(-c2ccc(O)c(C)c2)c(Cl)c1O`, the pIC50 in experiment [4] was 5.15.
Turning to `CC(C)NC(=O)COc1cccc(-c2nc3c(c(Nc4ccc(-c5cn[nH]c5)cc4)n2)COC3)c1`, the pIC50 in the experiment with A549 is above 7.00.
Consider `CC(CN1C(=O)S/C(=C\c2ccc(O)c(C(F)(F)F)c2)C1=O)(CC(F)(F)F)CC(F)(F)F`, for which the pIC50 in experiment [4] is 4.94.
In experiment [2], `Cc1cc(NC(=O)CCC2Cc3ccccc3NC2=O)nc(-c2ccccc2)n1` (stereo not drawn) showed a negative-log IC50 (pIC50) of 5.41.
Regarding `O=C(Oc1cccc(F)c1OC(=O)c1cccc(O)c1)c1cccc(O)c1`, in the experiment with 3T3-L1, the pIC50 is 6.30.
Same read-out and setting: to `COc1ccc(CN(CC[C@@H](c2ccccc2)[C@H]2CCOC(C)(C)C2)C(=O)c2ccco2)cc1OC` belongs 6.96.
The compound `O=c1cc(-c2ccc(O)cc2)oc2cc(O)cc(O)c12` [APIGENIN] had a pIC50 in experiment [3] of 5.58.
Take `CCOc1cccc2c1O[C@]1(C)C[C@@H]2NC(=O)N1c1cccc(C(=O)NCCc2ccc(C)cc2)c1`: the figures for the pIC50 in experiment [4] and in experiment [3] were 6.79 and 6.49, respectively.
As to `Cc1ccc(CNc2ccc(Cl)cc2NCc2ccc(C)c(O)c2)cc1O`, the pIC50 in experiment [1] was 5.59.
Take `CC(C)NC(=O)COc1cccc(-c2nc(Nc3ccc(-c4cn[nH]c4)cc3)c3sccc3n2)c1`: the pIC50 with A549 was above 7.00.
With `COc1ccc(C2=CC(c3ccc(F)cc3)N(C(=O)CSc3c(C)[nH]c4ccccc34)N2)cc1` (stereo not drawn), the negative-log IC50 (pIC50) in experiment [4] was 6.21.
In the case of `Cc1ccccc1CN(Cc1nnc(C(C)(C)C)o1)c1ccc2nc(O)[nH]c2c1`, in experiment [2], the negative-log IC50 (pIC50) was 5.16.
For the compound `CC(=O)CC(=O)Nc1ccc(Cl)c(C(F)(F)F)c1`, the negative logarithm of the IC50 (pIC50) in the experiment with 3T3-L1 is 4.17.
With `COc1ccc(-n2cc(-c3ccc(Cl)cc3)nc2NC(=O)CN(Cc2ccccc2)C(=O)c2ccc(C)cc2)cc1OC`, the negative logarithm of the IC50 (pIC50) in experiment [4] is 5.72.
Still for that read-out and setting: to `COc1ccc(-c2ccc(/C(C)=N/O)c(O)c2Cl)cc1` belongs 5.78.
Regarding `O=C1CC(c2cccc3[nH]ccc23)c2ccc(NC(=O)c3cccnc3)cc2N1` (stereo not drawn), in the experiment on 3T3-L1, the negative-log IC50 (pIC50) is 4.55.
`C[C@@]1(C(=O)NCc2cccnc2)Cn2nc(-c3ccccc3)cc2C(=O)N1Cc1ccc(N2CCOCC2)cc1` showed a pIC50 in experiment [1] of 8.21.
Still for that read-out and setting: to `COc1ccc(CC(=O)N[C@@H](Cc2cccc(Br)c2)C(=O)N[C@@H](C)c2ccccc2)cc1` belongs 9.85.
Turning to `OC[C@H]1OC(O)[C@H](O)[C@@H](O)[C@@H]1O` (stereo partly drawn) [DEXTROSE], in the experiment on 3T3-L1, the pIC50 was 5.85.
On the same count and under the same terms, to `O=C(Oc1cccc(OC(=O)c2cccc(O)c2)c1OC(=O)c1cccc(O)c1)c1cccc(O)c1` belongs 6.52.
With `O=C(CN1C(=O)S/C(=C/c2ccc(Cl)cc2)C1=O)Nc1ccc(Cl)cc1C(F)(F)F`, in experiment [1], the negative logarithm of the IC50 (pIC50) was 5.27.
As for `COc1ccc(-c2ccc(O)c(/C=N/O)c2)cc1F`, the pIC50 in experiment [4] was 4.97.
The same measure, in the same setting: to `CC(C)(C)c1ccc(S(=O)(=O)NCc2ccc(C(=O)Nc3cccnc3)cc2)cc1` belongs 6.00.
`OC[C@H]1O[C@](O)(CO)[C@@H](O)[C@@H]1O`: the pIC50 with 3T3-L1 was 5.41.
Turning to `COc1ccccc1N1CCN(C(=O)c2cnn(-c3nccc(-c4cccs4)n3)c2C2CC2)CC1`, the negative-log IC50 (pIC50) in experiment [4] is 5.54.
With `O=C1CC(c2ccc(-c3cc[nH]n3)s2)c2cc(N3CCNC3=O)ccc2N1` (stereo not drawn), in the experiment with 3T3-L1, the negative-log IC50 (pIC50) is 4.48.
In the case of `COCc1c(C(=O)N2CCN(c3ccccc3)CC2)cnn1-c1ncc2c(n1)-c1ccccc1CCC2`, in experiment [4], the pIC50 is 5.22.
In experiment [1], `O=C(CN1C(=O)S/C(=C/c2ccco2)C1=O)Nc1ccc(Cl)c(Cl)c1` showed a pIC50 of 4.83.
On the same count and under the same terms, to `CCOc1ccc2nc(-c3cccc(OCC(=O)NC(C)C)c3)nc(Nc3ccc(-c4cn[nH]c4)cc3)c2c1` belongs 6.94.
As to `O=C(CCc1ccc(O)cc1)c1c(O)cc(O)cc1O` [PHLORETIN], in experiment [3], the pIC50 was 4.31.
Turning to `O=C(Nc1ccc(Cl)c(C(F)(F)F)c1)c1ccc(Cl)cc1`, in the experiment on 3T3-L1, the negative-log IC50 (pIC50) was 4.21.
